By IC50 is commonly meant the concentration needed to halve the response being measured.

Molecules are shown by their SMILES.

This note sets out measurements from patent publication US11453647B2, “Benzimidazole derivatives as adenosine receptor antagonists” (Merck Patent GmbH, priority 2017, dated 2022).

Format in all cases: cell-based
One experiment deals with T1, human A1 receptor (Homo sapiens, UniProt P30542).
T1 construct: expressed in transfected cells; host or cells: CHO
T1 sequence (P30542 1-326): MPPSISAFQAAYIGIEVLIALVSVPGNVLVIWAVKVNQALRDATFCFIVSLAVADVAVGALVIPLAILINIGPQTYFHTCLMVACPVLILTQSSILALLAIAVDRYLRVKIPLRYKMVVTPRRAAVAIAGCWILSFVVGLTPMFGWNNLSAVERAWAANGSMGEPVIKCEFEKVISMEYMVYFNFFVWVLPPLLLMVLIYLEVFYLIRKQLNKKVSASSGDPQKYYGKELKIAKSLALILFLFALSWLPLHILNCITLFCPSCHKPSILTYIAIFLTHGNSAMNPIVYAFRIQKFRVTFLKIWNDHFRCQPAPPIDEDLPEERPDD
Briefly: functional cAMP (HTRF) assay, recombinant CHO cells expressing human A1 receptor, forskolin, agonist CPA. Here is the method:
(§1) The functional activities of human A2A, A2B, A1 and A3 receptors were determined by quantification of cAMP, being the second messenger for adenosine receptors.
(§2) For human A1 and A3 receptors, recombinant CHO cells, expressing either A1 or A3-receptor, were used. As both receptors couple to Gi proteins, the assay protocol was adapted:
(§3) Cells were seeded into 384-well plates, forskolin, test compounds and agonists (CPA for A1- and IB-MECA for A3-receptor) were added. After 30 min incubation, HTRF reagents (cAMP dynamic 2, Cis Bio) were added and the cellular cAMP levels were determined using the ENVISION (Perkin Elmer) plate reader. Obtained raw data were normalized against the inhibitor control and the neural control (DMSO) and the normalized data were fitted using GeneData software.
For orientation: In TR-FRET formats the signal depends on donor and acceptor labels being close together.

For the next experiment, the target named is T2, human A3 receptor (Homo sapiens, UniProt P0DMS8).
T2 construct: expressed in transfected cells; host or cells: CHO
T2 sequence (P0DMS8 1-318): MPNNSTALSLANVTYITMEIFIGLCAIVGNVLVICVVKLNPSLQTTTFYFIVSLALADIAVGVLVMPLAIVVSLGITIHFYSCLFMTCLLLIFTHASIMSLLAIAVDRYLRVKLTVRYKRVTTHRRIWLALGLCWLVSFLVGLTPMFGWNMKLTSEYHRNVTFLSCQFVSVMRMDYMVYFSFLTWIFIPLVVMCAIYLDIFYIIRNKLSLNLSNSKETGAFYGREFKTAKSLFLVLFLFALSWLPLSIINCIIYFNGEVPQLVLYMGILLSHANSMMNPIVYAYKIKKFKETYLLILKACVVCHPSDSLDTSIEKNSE
Briefly: functional cAMP (HTRF) assay, recombinant CHO cells expressing human A3 receptor, forskolin, agonist IB-MECA. Here is the method: as §1, §2, §3

The next experiment addresses T3, human A2A receptor (Homo sapiens, UniProt P29274).
T3 construct: expressed in transfected cells; host or cells: HEK293
Briefly: functional cAMP (HTRF) assay, recombinant HEK293 cells expressing human A2A receptor, agonist NECA.

The target in another experiment is T4, A2B receptors (Homo sapiens, UniProt P29275).
T4 sequence (P29275 1-332): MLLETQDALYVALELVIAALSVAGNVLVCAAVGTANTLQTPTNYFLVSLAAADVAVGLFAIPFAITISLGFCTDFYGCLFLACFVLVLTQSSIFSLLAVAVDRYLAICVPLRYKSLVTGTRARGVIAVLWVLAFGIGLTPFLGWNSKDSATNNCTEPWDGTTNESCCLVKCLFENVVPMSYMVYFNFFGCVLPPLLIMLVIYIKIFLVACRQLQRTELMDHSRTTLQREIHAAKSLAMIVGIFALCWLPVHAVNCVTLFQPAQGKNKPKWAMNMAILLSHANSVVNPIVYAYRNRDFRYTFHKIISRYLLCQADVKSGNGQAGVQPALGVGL
Briefly: functional cAMP (HTRF) assay, recombinant HEK293 cells expressing human A2B receptor, agonist NECA. The arrangement: expressed in transfected cells; host or cells: HEK293.

T3 sequence (P29274 whole entry): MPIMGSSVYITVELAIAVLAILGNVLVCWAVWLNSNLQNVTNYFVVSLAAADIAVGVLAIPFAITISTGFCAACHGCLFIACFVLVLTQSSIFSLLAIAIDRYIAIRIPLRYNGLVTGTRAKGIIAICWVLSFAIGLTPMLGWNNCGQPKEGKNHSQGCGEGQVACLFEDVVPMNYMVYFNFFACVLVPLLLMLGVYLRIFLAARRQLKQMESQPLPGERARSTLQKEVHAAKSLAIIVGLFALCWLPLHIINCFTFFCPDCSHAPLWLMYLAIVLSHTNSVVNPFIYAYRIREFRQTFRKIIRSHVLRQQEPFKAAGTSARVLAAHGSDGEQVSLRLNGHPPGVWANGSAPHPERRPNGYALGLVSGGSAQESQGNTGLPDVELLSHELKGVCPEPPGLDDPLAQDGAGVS

On to `COc1ccc(N2CCCCCC2)c2nc(NC(=O)N3CCC(C)(O)CC3)[nH]c12` [compound 216, N-[4-(azepan-1-yl)-7-methoxy-1H-1,3-benzodiazol-2-yl]-4-hydroxy-4-methylpiperidine-1-carboxamide], for which the results for the 50% inhibitory concentration (IC50) on human A1 receptor, at human A3 receptor and at human A2A receptor were more than 1000 nM, more than 1000 nM and less than 100 nM, respectively.
Take `COc1ccc(C2CCOCC2)c2nc(NC(=O)C3(C#N)CC3)[nH]c12` [compound 226, 1-cyano-N-[7-methoxy-4-(oxan-4-yl)-1H-1,3-benzodiazol-2-yl]cyclopropane-1-carboxamide]: the IC50 at human A1 receptor was more than 1000 nM; at human A3 receptor, more than 1000 nM; on human A2A receptor it was less than 100 nM.
For the molecule `COc1ccc(-c2cnn(C(F)F)c2)c2nc(NC(=O)N3CCC(C)(O)CC3)[nH]c12` [compound 229, N-{7-[1-(difluoromethyl)-1H-pyrazol-4-yl]-4-methoxy-1H-1,3-benzodiazol-2-yl}-4-hydroxy-4-methylpiperidine-1-carboxamide], the IC50 was more than 1000 nM on human A1 receptor, more than 1000 nM at human A3 receptor and less than 100 nM at human A2A receptor.
With `COc1ccc(-c2ccccc2)c2nc(NC(=O)c3cncs3)[nH]c12` [compound 256, N-(7-methoxy-4-phenyl-1H-1,3-benzodiazol-2-yl)-1,3-thiazole-5-carboxamide], the IC50 is less than 1000 nM on human A1 receptor, less than 10 nM on human A2A receptor and less than 10 nM on A2B receptors.
On to `COc1ccc(-c2ccccc2)c2nc(NC(=O)c3cnc(C)s3)[nH]c12` [compound 257, N-(7-methoxy-4-phenyl-1H-1,3-benzodiazol-2-yl)-2-methyl-1,3-thiazole-5-carboxamide], for which the concentration for half-maximal inhibition (IC50) at human A1 receptor is less than 1000 nM; at human A2A receptor, less than 10 nM; on A2B receptors, less than 10 nM.
In the case of `COc1ccc(-c2ccccc2)c2nc(NC(=O)c3cnc(N)s3)[nH]c12` [compound 258, 2-amino-N-(7-methoxy-4-phenyl-1H-1,3-benzodiazol-2-yl)-1,3-thiazole-5-carboxamide], the IC50 is less than 1000 nM on human A1 receptor, less than 10 nM at human A2A receptor and less than 10 nM on A2B receptors.
With `COc1ccc(-c2cccnc2)c2nc(NC(=O)c3cnn(C)c3)[nH]c12` [compound 260, N-[7-methoxy-4-(pyridin-3-yl)-1H-1,3-benzodiazol-2-yl]-1-methyl-1H-pyrazole-4-carboxamide], the concentration for half-maximal inhibition (IC50) is less than 1000 nM on human A1 receptor, less than 10 nM at human A2A receptor and less than 10 nM on A2B receptors.
On to `COc1ccc(-c2ccncc2)c2[nH]c(NC(=O)c3c[nH]cn3)nc12` [compound 266, N-[4-methoxy-7-(pyridin-4-yl)-1H-1,3-benzodiazol-2-yl]-1H-imidazole-4-carboxamide], for which the values for the half-inhibitory concentration (IC50) at human A1 receptor, on human A2A receptor and at A2B receptors were more than 1000 nM, less than 100 nM and less than 100 nM, respectively.
For `COCCOc1cccc(-c2ccc(OC)c3nc(NC(=O)c4c[nH]cn4)[nH]c23)c1` [compound 267, N-{4-methoxy-7-[3-(2-methoxyethoxy)phenyl]-1H-1,3-benzodiazol-2-yl}-1H-imidazole-4-carboxamide], the half-maximal inhibitory concentration (IC50) was less than 1000 nM at human A1 receptor, less than 10 nM at human A2A receptor and less than 10 nM at A2B receptors.
Consider `COc1ccc(-c2ccc3cc[nH]c3c2)c2nc(NC(=O)N3CCC(C)(O)CC3)[nH]c12` [compound 272, 4-hydroxy-N-[4-(1H-indol-6-yl)-7-methoxy-1H-1,3-benzodiazol-2-yl]-4-methylpiperidine-1-carboxamide], for which the values for the IC50 on human A1 receptor, at human A2A receptor and at A2B receptors were more than 1000 nM, less than 100 nM and less than 100 nM, respectively.
With `COc1ccc(-c2ccccc2)c2nc(NC(=O)c3cnc4n3CCCC4)[nH]c12` [compound 291, N-(7-methoxy-4-phenyl-1H-1,3-benzodiazol-2-yl)-5H,6H,7H,8H-imidazo[1,2-a]pyridine-3-carboxamide], the IC50 at human A1 receptor is less than 1000 nM; at human A2A receptor it was less than 100 nM; on A2B receptors, less than 100 nM.
